We go through 5 molecules from paper PMC9412875, “^64Cu-DOTHA2-PSMA, a Novel PSMA PET Radiotracer for Prostate Cancer with a Long Imaging Time Window” (Pharmaceuticals, 2022).

The target in one data set is PSMA. More on the design: method as in PMID 25883127. The conditions noted are these: cited from earlier work.
A further data set concerns LNCaP cells. Kind of data set: Cellular efflux assay. It counts as cell-based, human. The settings on record: 1h incubation. The protocol: Here, 12-well polylysine-coated Cellbind plates were seeded with 150 × 10^3 LNCaP cells with 1.75 mL of cell media. At 70–100% confluence (3 days of growth), the cell medium was changed and 37 kBq of ^64Cu-DOTHA2-PSMA in 1 mL of cell medium was added to each well of group 1 and 160 kBq to each of group 2.
For efflux assays, after adding ^64Cu-DOTHA2-PSMA, cells were incubated for 60 min for the time points 15 min to 4 h (group 1) and incubated for 4 h for the time points 4 h to 48 h (group 2). After incubation, the medium was removed, cells were washed with 1 mL of cold PBS, 1 mL of cell media was added and, similarly to uptake and internalization, cells were again incubated in nonradioactive media for 0, 15, 30, 45, 60 min, 2 h, 4 h (group 1) and 4 h, 8 h, 24 h, 32 h or 48 h (group 2) (3 wells per time point). After respective incubation times per well, the medium was removed, and cells were washed with 1 mL of cold PBS, then removed from the well with 1 mL of trypsin to measure the residual radioactivity by gamma counter. The results of residual activity were expressed as percentage of the 1 h (Group 1) or 4 h (Group 2) uptake activity (0 min of efflux time-point) as a function of time for 10^6 cells.
All the assays were performed at least 3 times, each with different ^64Cu-DOTHA2-PSMA production and cell passage. Cells were counted in 3 wells for each protocol (uptake, internalization, and efflux) on day 1 and day 3 of each experiment and an average for cells numbers at day 2.

On the set-up of data set [1]: method as in PMID 29088775, doi:10.1515/ract-2016-2632. The settings on record: cited from earlier work.
Data set [2] can be described thus: Balb/c mice biodistribution. The conditions noted are these: 2 h p.i. The class given is in vivo. As to the method: ^64Cu-DOTHA2-PSMA biodistribution was assessed in balb/c mice (n = 30) by harvesting blood and organs at 1 h, 2 h, 4 h, 24 h, and 48 h p.i. to measure tissue radioactivity and weight. Results were reported as the %IA/g of tissue and compared with the radiotracer used for clinical imaging in our facility, ^68Ga-PSMA-617.
Balb/c mice (n = 30) were injected with a bolus of ^64Cu-DOTHA2-PSMA by the tail vein (in 0.3 mL of saline: 3 MBq for 1 h, 2 h, and 4 h p.i., 7.5 MBq for 24 h p.i. and 21 MBq for 48 h p.i.). Injected activity had to be increased for later time points to ensure reliable detection and reliability in organs with a low uptake, e.g., the brain. At all timepoints, blood was collected using a heparin-coated syringe by femoral vein puncture and mice were then euthanized and dissected. Harvested tissues were rinsed, blotted dry, and then weighted and counted in gamma counter. The results are reported as the %IA per gram of tissue. The biodistribution results were compared with the ^68Ga-PSMA-617 results obtained by our team at 1 h and 2 h p.i.

Data set [3] addresses T1, PSMA on the LNCaP human prostate cell line (Homo sapiens, UniProt Q04609).
T1 construct: Human prostate adenocarcinoma LNCaP PSMA-expressing cells were purchased from American Type Culture Collection; host or cells: LNCaP human prostate adenocarcinoma cells
Kind of data set: Cellular competition assay. The class given is binding. As to the method:
Here, 12-well polylysine-coated Cellbind plates were seeded with 150 × 10^3 LNCaP cells. […] […] Cells were then incubated for 1 h, after which the medium was removed, cells were washed once with 1 mL of cold PBS, and then 1 mL of trypsin was added to collect cells for radioactivity measurement by gamma-counter. The assays were performed in triplicate, each time with independent ^64Cu-DOTHA2-PSMA production and cell seedings. IC50 was calculated using GraphPad Prism 9 one site fit logIC50.

For data set [4] the following is noted: cited from earlier work.
Data set [5] in a line: Plasma stability (ex vivo) and protein binding in mouse serum/plasma. The class given is in vitro ADME. The conditions noted are these: incubation of free 64Cu(OAc)2 in mouse plasma. As to the method:
Plasma stability studies were carried out by incubating ^64Cu-DOTHA2-PSMA (50 MBq in 250 μL PBS buffer) in 250 μL of mouse serum at 37 °C for up to 24 h. The plasma was then mixed twice with ethanol (1:1) to precipitate all the proteins. The samples were subjected to vortex mixing for 1 min and then centrifugation for 10 min at 7000 rpm. Plasma proteins were separated from the soluble component by ultracentrifugation and the radioactivity was assessed. The supernatant fraction was assayed by radio-TLC on C18 plates and by UPLC; free ^64Cu(OAc)2 and ^64Cu-DOTHA2-PSMA were used as standards. The radio-TLCs were eluted with 0.1 M sodium citrate buffer at pH 5.5 using an Instant Imager system (BioScan, DC, U.S.A.) for radiodetection. The precipitated proteins were again subjected to 10% TFA, vortexed for 2–3 min, and then centrifuged for 10 min at 7000 rpm. The separation and analysis for the supernatant and the proteins were performed in the same manner.
The protein binding ability was evaluated by incubating ^64Cu-DOTHA2-PSMA (100 MBq) in phosphate buffer (250 μL, pH 7) at 37 °C and fresh mouse serum (250 μL) and for 1 h, 4 h, and 24 h. Plasma proteins were precipitated by the addition of ethanol (1:1, v/v) to the plasma samples, followed by centrifugation at 7000 rpm for 5 min at room temperature and separation of the supernatant. This process was repeated three times with the same volume of ethanol, and the supernatants were pooled. The radioactivity content of the supernatant and the precipitated protein were measured in a dose calibrator to obtain the protein binding percentage.

Like-named read-outs stand apart in the source and are kept apart here.

T1 sequence (Q04609 whole entry): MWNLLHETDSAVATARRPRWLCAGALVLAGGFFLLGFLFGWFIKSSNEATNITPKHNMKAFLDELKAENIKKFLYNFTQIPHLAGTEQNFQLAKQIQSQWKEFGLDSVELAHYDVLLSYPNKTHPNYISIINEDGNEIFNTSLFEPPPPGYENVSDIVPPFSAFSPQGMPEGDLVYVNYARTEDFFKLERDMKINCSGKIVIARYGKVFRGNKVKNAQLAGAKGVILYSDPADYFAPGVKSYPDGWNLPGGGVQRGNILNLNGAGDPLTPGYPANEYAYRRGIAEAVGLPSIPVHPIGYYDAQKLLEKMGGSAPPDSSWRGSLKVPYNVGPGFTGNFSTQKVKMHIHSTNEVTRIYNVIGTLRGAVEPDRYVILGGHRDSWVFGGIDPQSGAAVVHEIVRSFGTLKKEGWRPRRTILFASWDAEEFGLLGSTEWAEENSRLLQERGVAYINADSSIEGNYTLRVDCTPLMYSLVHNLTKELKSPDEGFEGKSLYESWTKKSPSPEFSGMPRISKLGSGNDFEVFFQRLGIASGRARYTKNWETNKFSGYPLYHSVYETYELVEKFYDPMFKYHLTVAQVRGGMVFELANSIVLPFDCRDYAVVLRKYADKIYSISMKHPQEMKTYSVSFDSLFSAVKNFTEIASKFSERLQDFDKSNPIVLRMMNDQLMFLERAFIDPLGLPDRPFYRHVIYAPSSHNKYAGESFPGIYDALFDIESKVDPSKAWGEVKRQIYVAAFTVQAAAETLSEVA

As for `O=C(O)CC[C@H](NC(=O)N[C@@H](CCCCNC(=O)[C@H](Cc1ccc2ccccc2c1)NC(=O)[C@H]1CC[C@H](CNC(=O)CN2CCN(CC(=O)O)CCN(CC(=O)O)CCN(CC(=O)O)CC2)CC1)C(=O)O)C(=O)O` [PSMA-617], the Ki at PSMA is 0.00234 ± 0.00294 µM.
In the case of `O=C(O)CCC(NC(=O)NC(CCCCNC(=O)C(Cc1ccc2ccccc2c1)NC(=O)C1CCC(CNC(=O)CN2CCN(CC(=O)O)CCN(CC(=O)O)CCN(CC(=O)O)CC2)CC1)C(=O)O)C(=O)O.[68Ga]` (centres unmarked) [^68Ga-PSMA-617, reference compound], the “Retained activity normalized to time 0” value is recorded as 101.57% in the data set on LNCaP cells (efflux time 0.25 h); 106.07% in the data set with LNCaP cells (efflux time 0.50 h); 97.22% in the data set with LNCaP cells (efflux time 0.75 h); 84.75% with LNCaP cells (efflux time 1 h); 81.62% with LNCaP cells (efflux time 2 h). Moreover, the “log D” value in data set [1] was −1.98. This molecule displayed a liver uptake in data set [2] of 0.67 ± 0.16 % IA/g.
On to `CN([O-])C(=O)CN1CCN(CC(=O)NCC2CCC(C(=O)NC(Cc3ccc4ccccc4c3)C(=O)NCCCCC(NC(=O)NC(CCC(=O)O)C(=O)O)C(=O)O)CC2)CCN(CC(=O)N(C)[O-])CCN(CC(=O)N(C)O)CC1.[Cu+2]` (centres unmarked) [^natCu-DOTHA2-PSMA], for which the IC50 in data set [3] (in competition with 64Cu-DOTHA2-PSMA, 1 h, reaction medium with 20 g/L BSA, read-out: IC50 on LNCaP) turned out to be 0.0113 ± 0.0143 µM; in data set [3] (with 10% BSA in RPMI, read-out: IC50), 0.0214 µM; in data set [3] (with RPMI only, read-out: IC50) it was 0.00908 µM.
As for `O=C([O-])CN1CCN(CC(=O)[O-])CCN(CC(=O)NCC2CCC(C(=O)NC(Cc3ccc4ccccc4c3)C(=O)NCCCCC(NC(=O)NC(CCC(=O)O)C(=O)O)C(=O)O)CC2)CCN(CC(=O)O)CC1.[64Cu+2]` (centres unmarked) [^64Cu-PSMA-617], in data set [4] (2 h p.i.), the “signal corresponding to the intact product in blood” value was 20%, the “signal corresponding to the intact product in liver” value is 28% and the “signal corresponding to the intact product in urine” value is reported as 5.2%. The “signal corresponding to the intact product in serum” value in data set [4] (after 5 min) is listed as 71%. For the same molecule, in data set [1], the “log D” value was −1.93 ± 0.13.
`CC(=O)[O-].CC(=O)[O-].[64Cu+2]` [^64Cu(OAc)2]: the “proportion of the signal bound to plasma proteins” value in data set [5] is “greater than 90%”.
